In patent US12252701B2, “Chimeric antigen receptor T cell therapy” (KITE PHARMA, INC., priority 2020, dated 2025):

How the values were obtained:
in vitro = conditions: human
Procedure: 96-well plates were coated with 100 μl of KIP-1 antibody per well at 1 μg/ml in PBS and plates were incubated at 4° C. overnight. CAR-T cells were thawed and were rested in ImmunoCult expansion medium and incubated overnight at 37° C. Cells were then counted and resuspended at 2 million cells/ml and seed at 200,000 cells per well in 100 μl of expansion medium with 10 ng/ml recombinant IL2. For groups treated with KIP-1, 100 μl of expansion medium were added with 2× final drug dilutions. For CD3/CD28 treated groups, 100 μl of expansion media were added with 2× final drug dilutions containing 25 μl/ml of CD3/CD28 T cell activator from StemCell Technologies. Cells were then incubated at 37° C. After 4 days, cells were counted and diluted 1 to 8-fold in expansion media and then transferred to a 24-well plate. Cell counts were repeated at day 7 and transferred to T25 flasks. On day 11, all cells were harvested and counted.

[1] = system: phospho-STAT panel (pSTAT3/4/5), CD3+ T cells; assay: phospho-STAT induction by IL-6, MesoScale Discovery phospho-STAT panel; type: cell-based, human; conditions: for pSTAT3 / pSTAT4 / pSTAT5: CD3+ T cells
Procedure: CD19 CAR-T, PBMC or CD3+ T cells (AllCells) were thawed and rested 0/N at 37° C. in R10 media. Cells were seeded at 700,000 cells/well and were either untreated or treated with 100 ng/ml IL6+drug at indicated concentrations for 20 minutes at 37° C. The cells were then washed with cold PBS and followed by 60 μl of Tris lysis buffer (provided by MSD) for 30 minutes on ice. Lysates were collected by spin down for 10 minutes at >10,000 rpm. 25 μl/well per condition was used for MesoScale Discovery (MSD) assay using the phospho-STAT panel (pSTAT3/4/5) from MesoScale Discovery following the manufacturer's protocol. pSTAT panel plates were blocked with 150 μl of blocker A solution for 1 hr at RT with shaking. Plates were washed three times with 1× Tris wash buffer. 25 μl of lysate samples were added per well, incubated 2 hr at room temperature or at 4° C. overnight. Plates were washed 3 times with 1× tris wash buffer and then 25 μl of detection antibody solution were added to each well and incubated for 1 hr at room temperature with shaking. Plates were washed and 1× read buffer added to each well and plates were read on the MSD instrument.

[2] = system: NALM6.GFP.LUC.CD19 target cells; assay: Serial killing assay of CAR-T, percent cytotoxicity by luciferase detection; conditions: two different E:T ratios, dose titration
[3] = lower dose titration, IL-6 + drug 3.125 nM, MSD signal (No stim. 123, IL-6 alone 5767)
[4] = lower dose titration, IL-6 + drug 3.125 nM, MSD signal (No stim. 281, IL-6 alone 3624)
[5] = lower dose titration, IL-6 + drug 3.125 nM, MSD signal (No stim. 324, IL-6 alone 2352)
[6] = lower dose titration, IL-6 + drug 6.25 nM, MSD signal (No stim. 123, IL-6 alone 5767)
[7] = lower dose titration, IL-6 + drug 6.25 nM, MSD signal (No stim. 281, IL-6 alone 3624)
[8] = lower dose titration, IL-6 + drug 6.25 nM, MSD signal (No stim. 324, IL-6 alone 2352)
[9] = lower dose titration, IL-6 + drug 12.5 nM, MSD signal (No stim. 123, IL-6 alone 5767)
[10] = lower dose titration, IL-6 + drug 12.5 nM, MSD signal (No stim. 281, IL-6 alone 3624)
[11] = lower dose titration, IL-6 + drug 12.5 nM, MSD signal (No stim. 324, IL-6 alone 2352)
[12] = lower dose titration, IL-6 + drug 25 nM, MSD signal (No stim. 123, IL-6 alone 5767)
[13] = lower dose titration, IL-6 + drug 25 nM, MSD signal (No stim. 281, IL-6 alone 3624)
[14] = lower dose titration, IL-6 + drug 25 nM, MSD signal (No stim. 324, IL-6 alone 2352)
[15] = lower dose titration, IL-6 + drug 50 nM, MSD signal (No stim. 123, IL-6 alone 5767)
[16] = lower dose titration, IL-6 + drug 50 nM, MSD signal (No stim. 281, IL-6 alone 3624)
[17] = lower dose titration, IL-6 + drug 50 nM, MSD signal (No stim. 324, IL-6 alone 2352)
[18] = lower dose titration, IL-6 + drug 100 nM, MSD signal (No stim. 123, IL-6 alone 5767)
[19] = lower dose titration, IL-6 + drug 100 nM, MSD signal (No stim. 281, IL-6 alone 3624)
[20] = lower dose titration, IL-6 + drug 100 nM, MSD signal (No stim. 324, IL-6 alone 2352)

For `CCS(=O)(=O)N1CC(CC#N)(n2cc(-c3ncnc4[nH]ccc34)cn2)C1` [baricitinib], the viability at 0 day, 5 nM (in vitro; CAR-T cells) was 75%, the viability at 0 day, 10 nM (in vitro; CAR-T cells) was 75% and the viability at 4 day, 5 nM (in vitro; CAR-T cells) was 67.4%. For the same molecule, the viability at 4 day, 10 nM (in vitro; CAR-T cells) was 58.9%, the viability at 8 day, 5 nM (in vitro; CAR-T cells) was 72.7% and the viability at 12 day, 5 nM (in vitro; CAR-T cells) was 82.3%. The viability at 12 day, 10 nM (in vitro; CAR-T cells) was 71.2%, the pSTAT3 [1, 3] was 5208 and the pSTAT4 [1, 4] was 2961. It also gave a pSTAT5 [1, 5] of 1408, a pSTAT3 [1, 6] of 2798 and a pSTAT4 [1, 7] of 2801. For the same molecule, the pSTAT5 [1, 8] was 1243, the pSTAT3 [1, 9] was 2528 and the pSTAT4 [1, 10] was 1741. The pSTAT5 [1, 11] was 827, the pSTAT3 [1, 12] was 1441 and the pSTAT4 [1, 13] was 1359. For the same molecule, the pSTAT5 [1, 14] was 710, the pSTAT3 [1, 15] was 702 and the pSTAT4 [1, 16] was 1059. The pSTAT5 [1, 17] was 586, the pSTAT3 [1, 18] was 288 and the pSTAT4 [1, 19] was 690. For the same molecule, the pSTAT5 [1, 20] was 471 and the “impact on CAR-T serial killing (percent cytotoxicity)” value [2] was “negative impacts”.

Work on `C[C@@H]1CCN(C(=O)CC#N)C[C@@H]1N(C)c1ncnc2[nH]ccc12` [tofacitinib] yielded a viability at 0 day, 50 nM (in vitro) of 75%, a viability at 0 day, 100 nM (in vitro) of 75% and a viability at 4 day, 50 nM (in vitro) of 67.7%. The viability at 4 day, 100 nM (in vitro) was 61.8%, the viability at 8 day, 50 nM (in vitro) was 74.2% and the viability at 8 day, 100 nM (in vitro) was 64.7%. The viability at 12 day, 50 nM (in vitro) was 80.1%, the viability at 12 day, 100 nM (in vitro) was 85.2% and the pSTAT3 ([1]; 100 ng/ml IL-6 + drug 10 uM, 20 min, MSD signal (No stim. 689, IL-6 alone 33641)) was 2238. It also gave a pSTAT4 ([1]; 100 ng/ml IL-6 + drug 10 uM, 20 min, MSD signal (No stim. 1964, IL-6 alone 15405)) of 2159, a pSTAT5 ([1]; 100 ng/ml IL-6 + drug 10 uM, 20 min, MSD signal (No stim. 9210, IL-6 alone 17743)) of 1431 and a pSTAT3 ([1]; IL-6 + drug 0.125 uM, MSD signal (No stim. 689, IL-6 alone 33641)) of 7733. The pSTAT4 ([1]; IL-6 + drug 0.125 uM, MSD signal (No stim. 1964, IL-6 alone 15405)) was 3698, the pSTAT5 ([1]; IL-6 + drug 0.125 uM, MSD signal (No stim. 9210, IL-6 alone 17743)) was 2424 and the pSTAT3 ([1]; IL-6 + drug 0.5 uM, MSD signal (No stim. 689, IL-6 alone 33641)) was 3382. The pSTAT4 ([1]; IL-6 + drug 0.5 uM, MSD signal (No stim. 1964, IL-6 alone 15405)) was 2503, the pSTAT5 ([1]; IL-6 + drug 0.5 uM, MSD signal (No stim. 9210, IL-6 alone 17743)) was 1756 and the pSTAT3 ([1]; IL-6 + drug 1 uM, MSD signal (No stim. 689, IL-6 alone 33641)) was 2301. It also gave a pSTAT4 ([1]; IL-6 + drug 1 uM, MSD signal (No stim. 1964, IL-6 alone 15405)) of 2259, a pSTAT5 ([1]; IL-6 + drug 1 uM, MSD signal (No stim. 9210, IL-6 alone 17743)) of 1528 and a pSTAT3 ([1]; IL-6 + drug 5 uM, MSD signal (No stim. 689, IL-6 alone 33641)) of 2165. The pSTAT4 ([1]; IL-6 + drug 5 uM, MSD signal (No stim. 1964, IL-6 alone 15405)) was 2033, the pSTAT5 ([1]; IL-6 + drug 5 uM, MSD signal (No stim. 9210, IL-6 alone 17743)) was 1421 and the “effect on phosphorylated-STAT-1, STAT-3 and STAT-5 levels” value ([1]; IL-6 stimulation 100 ng/ml, 20 minutes, 10 μM to 0.125 μM) was “reduction of phosphorylated-STAT-1, STAT-3 and STAT-5 levels in a dose-responsive manner”. For the same molecule, the pSTAT3 [1, 3] was 5917, the pSTAT4 [1, 4] was 3525 and the pSTAT5 [1, 5] was 1810. It also gave a pSTAT3 [1, 6] of 4586, a pSTAT4 [1, 7] of 3455 and a pSTAT5 [1, 8] of 1808. The pSTAT3 [1, 9] was 3998, the pSTAT4 [1, 10] was 2304 and the pSTAT5 [1, 11] was 1187. For the same molecule, the pSTAT3 [1, 12] was 3115, the pSTAT4 [1, 13] was 1982 and the pSTAT5 [1, 14] was 914. The pSTAT3 [1, 15] was 2148, the pSTAT4 [1, 16] was 1499 and the pSTAT5 [1, 17] was 703. It also gave a pSTAT3 [1, 18] of 1006, a pSTAT4 [1, 19] of 918 and a pSTAT5 [1, 20] of 513.
